Test results: ChEMBL document CHEMBL4330083, “Synthesis and evaluation of isoprenylation-resveratrol dimer derivatives against Alzheimer's disease” (Eur J Med Chem, 2019)
Active and inactive are the calls of the source. The calls are words filed in the database; no cut-off is given here.

Columns and labels:
[1] = target: T1, Amine oxidase [flavin-containing] A (Homo sapiens, UniProt P21397); assay: Inhibition of human MAO-A preincubated for 15 mins followed by p-tyramine substrate addition and measured after 20 mins by Amplex red reagent based fluorescence assay
T1 sequence (P21397 whole entry): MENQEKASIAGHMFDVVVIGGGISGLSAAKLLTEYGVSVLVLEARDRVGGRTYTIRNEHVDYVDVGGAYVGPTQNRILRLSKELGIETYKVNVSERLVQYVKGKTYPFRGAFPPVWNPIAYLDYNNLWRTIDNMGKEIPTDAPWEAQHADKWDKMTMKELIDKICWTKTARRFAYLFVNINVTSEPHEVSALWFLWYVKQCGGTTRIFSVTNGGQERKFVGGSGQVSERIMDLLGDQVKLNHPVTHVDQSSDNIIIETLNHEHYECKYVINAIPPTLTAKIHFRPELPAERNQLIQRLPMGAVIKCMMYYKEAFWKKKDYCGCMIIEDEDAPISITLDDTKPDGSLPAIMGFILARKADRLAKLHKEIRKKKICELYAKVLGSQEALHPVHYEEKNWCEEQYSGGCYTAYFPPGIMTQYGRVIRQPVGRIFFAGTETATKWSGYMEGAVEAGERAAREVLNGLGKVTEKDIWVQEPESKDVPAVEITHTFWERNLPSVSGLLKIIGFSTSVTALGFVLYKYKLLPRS

[2] = target: T2, Amine oxidase [flavin-containing] B (Homo sapiens, UniProt P27338)
T2 sequence (P27338 whole entry): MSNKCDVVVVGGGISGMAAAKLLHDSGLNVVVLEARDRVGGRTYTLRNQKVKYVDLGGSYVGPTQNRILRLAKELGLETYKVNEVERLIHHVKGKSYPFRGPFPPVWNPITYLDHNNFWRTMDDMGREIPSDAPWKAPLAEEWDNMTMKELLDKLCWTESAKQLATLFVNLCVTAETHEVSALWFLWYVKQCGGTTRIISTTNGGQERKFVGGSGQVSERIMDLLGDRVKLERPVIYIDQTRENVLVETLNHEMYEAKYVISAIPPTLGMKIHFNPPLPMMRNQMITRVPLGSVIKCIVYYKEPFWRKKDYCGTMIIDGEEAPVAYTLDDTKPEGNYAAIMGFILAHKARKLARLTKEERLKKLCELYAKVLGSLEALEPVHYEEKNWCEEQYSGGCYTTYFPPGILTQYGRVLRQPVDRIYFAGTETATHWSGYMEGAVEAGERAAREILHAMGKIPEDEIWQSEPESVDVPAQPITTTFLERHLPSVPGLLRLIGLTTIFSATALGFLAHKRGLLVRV

[3] = species on record: Homo sapiens; assay: Selectivity ratio of IC50 for human MAO-A to IC50 for human MAO-B
[4] = Antioxidant activity assessed as inhibition of DPPH free radical after 30 mins by UV-Visible spectrophotometric analysis; assay type: functional
[5] = Antioxidant activity assessed as ABTS radical cation scavenging activity by measuring trolox equivalents after 150 mins; assay type: functional
[6] = Antioxidant activity assessed as ferric ion reduction by measuring trolox equivalents after 3 to 5 mins by FRAP assay; assay type: functional
[7] = tested on: PC-12; assay: Neuroprotection against H2O2-induced cell death in rat PC12 cells at 6.25 to 25 uM preincubated for 4 hrs followed by H2O2 addition measured after 24 hrs by MTT assay; assay type: functional, cell-based
[8] = tested on: PC-12; assay: Neuroprotection against rotenone-induced cell death in rat PC12 cells preincubated for 4 hrs followed by rotenone addition measured after 24 hrs by MTT assay; assay type: functional, cell-based
[9] = tested on: PC-12; assay: Neuroprotection against oligomycin A-induced cell death in rat PC12 cells preincubated for 4 hrs followed by oligomycin A addition measured after 24 hrs by MTT assay; assay type: functional, cell-based
[10] = tested on: PC-12; assay: Neurotoxicity in rat PC12 cells at 30 uM after 24 hrs by MTT assay; assay type: toxicity, cell-based; conditions: pc-12, 24 h
[11] = tested on: PC-12; assay: (§1) Neuroprotection against H2O2-induced oxidative damage in rat PC12 cells assessed as reduction in ROS production preincubated for 4 hrs followed by H2O2 addition and measured after 24 hrs by DCFH-DA staining-based flow cytometric analysis; assay type: functional, cell-based
[12] = tested on: PC-12; assay: as §1, with “production by measuring mean fluorescence intensity at 10 uM” for “production”, “addition” for “addition and”, “analysis (reference value: 82616)” for “analysis”; assay type: functional
[13] = tested on: PC-12; assay: Neuroprotection against H2O2-induced oxidative damage in rat PC12 cells assessed as viable cells at 2.5 uM after 24 hrs in presence of H2O2 by annexin V-FITC/propidium iodide staining based flow cytometric analysis (reference value: 63.6%); assay type: functional; conditions: PC-12, 24 h, read-out: Activity
[14] = tested on: PC-12; assay: Neuroprotection against H2O2-induced oxidative damage in rat PC12 cells assessed as late apoptotic cells at 5 uM after 24 hrs in presence of H2O2 by annexin V-FITC/propidium iodide staining based flow cytometric analysis (reference value: 29.8%); assay type: functional
[15] = tested on: PC-12; assay: Neuroprotection against H2O2-induced oxidative damage in rat PC12 cells assessed as mitochondrial membrane potential at 2.5 uM after 24 hrs in presence of H2O2 by Jc-1 staining based flow cytometric analysis (reference value: 16.35 +/- 3.19%); assay type: functional
[16] = species on record: Homo sapiens; assay: Neuroprotection against LPS-induced inflammation in […] cells assessed as reduction in nitric oxide production at 10 to 25 uM after 18 hrs by Griess reagent based assay; assay type: functional, cell-based
[17] = species on record: Homo sapiens; assay: Neuroprotection against LPS-induced inflammation in […] cells assessed as reduction in ROS production after 18 hrs by DCFH-DA staining-based flow cytometric analysis; assay type: functional, cell-based
[18] = Neuroprotection against H2O2-induced inflammation in […] cells assessed as reduction in ROS production by measuring mean fluorescence intensity at 5 uM after 18 hrs by DCFH-DA staining-based flow cytometric analysis (reference value: 11273); assay type: functional
[19] = species on record: Homo sapiens; assay: Antiinflammatory activity in […] cells assessed as inhibition of LPS-induced TNF-alpha release preincubated for 1 hr followed by LPS addition measured after 18 hrs by ELISA; assay type: functional, cell-based
[20] = in vitro; parameters: dose or concentration left out as unconfirmed; conditions: PAMPA
Description: Effective permeability of the compound at 100 mg/ml incubated for 16 hrs by PAMPA-BBB assay

[21] = tested on: PC-12; assay: Neuroprotection against H2O2-induced oxidative damage in rat PC12 cells assessed as viable cells at 2.5 uM after 24 hrs in presence of H2O2 by annexin V-FITC/propidium iodide staining based flow cytometric analysis (reference value: 64.1%); assay type: functional; conditions: PC-12, 24 h, read-out: Activity
[22] = tested on: PC-12; assay: Neuroprotection against H2O2-induced oxidative damage in rat PC12 cells assessed as late apoptotic cells at 10 uM after 24 hrs in presence of H2O2 by annexin V-FITC/propidium iodide staining based flow cytometric analysis (reference value: 6.2%); assay type: functional
[23] = Neuroprotection against LPS-induced inflammation in human BV2 cells assessed as reduction in ROS production by measuring mean fluorescence intensity at 2.5 uM after 18 hrs by DCFH-DA staining-based flow cytometric analysis (reference value: 56792); assay type: functional
[24] = Neuroprotection against H2O2-induced inflammation in […] cells assessed as reduction in ROS production by measuring mean fluorescence intensity at 5 uM after 18 hrs by DCFH-DA staining-based flow cytometric analysis (reference value: 20004); assay type: functional

CC(C)=CCc1c(O)cc(/C=C/c2ccc3c(c2)[C@H](c2cc(O)c4c(c2)OC(C)(C)CC4)[C@@H](c2ccc(O)cc2)O3)cc1O
IC50 [1]: 8.12 µM | IC50 [2]: 3.93 µM | Ratio IC50 [3]: 2.07 | IC50 [4]: 35.3 µM | Activity [5]: 1.7 equiv | Activity [6]: 1.97 equiv | Activity [7]: Active | Activity [8]: Dose-dependent effect | Activity [9]: Dose-dependent effect | Activity [10]: Non-Toxic | Activity [11]: Dose-dependent effect | Flu intensity [12]: 56274 | viability at 2.5 µM [13]: 68% | Activity [14]: 12.4% | Activity [15]: 42.34% | Activity [16]: Active | Activity [17]: Dose-dependent effect | Flu intensity [18]: 9218 | inhibition [19]: Dose-dependent effect | Papp at 16 h [20]: 6.92 ×10⁻⁶ cm/s

CC(C)=CCc1c(O)cc(/C=C/c2ccc3c(c2)[C@H](c2cc(O)c(CC=C(C)C)c(O)c2)[C@@H](c2ccc(O)cc2)O3)cc1O
IC50 [1]: 2.6 µM | IC50 [2]: 0.92 µM | Ratio IC50 [3]: 2.83 | IC50 [4]: 47 µM | Activity [5]: 1.43 equiv | Activity [6]: 1.74 equiv | Activity [7]: Active | Activity [8]: Dose-dependent effect | Activity [9]: Dose-dependent effect | Activity [10]: Non-Toxic | Activity [11]: Dose-dependent effect | viability at 2.5 µM [21]: 75.9% | Activity [22]: 0.7% | Activity [16]: Active | Activity [17]: Dose-dependent effect | Flu intensity [23]: 31340 | Flu intensity [24]: 11602 | inhibition [19]: Dose-dependent effect | Papp at 16 h [20]: 10.1 ×10⁻⁶ cm/s
